Measured values reported in patent publication US20090036492A1, “Novel Cercosporamide Derivative” (priority 2005, published 2009).

Test system: male KK mice
Assay: Blood glucose lowering effect in diabetic KK mice
Format: in vivo
Settings: Mus musculus, po, 72 h, 15 to 20 weeks old, feed containing 0.03% of the compound, three days, blood glucose on the 3rd day vs control group, read-out: Blood glucose lowering efficacy (%)
From the text: Six-week-old male KK mice were purchased from CLEA Japan, Inc. and then were fed until 15 to 20 weeks old and affected with diabetes. The mice were individually fed during the adaptation period and the test period, and water and feed (FR2, Funabashi Farm) were freely ingested.
At the start of the experiment, after body weight measurement, blood was collected from the tail vein of the mice into a heparin-coated glass tube and centrifuged, and then plasma was separated. The glucose level in the plasma was measured by Glucoloader GXT (A&T Corp.), and individuals having a blood glucose level of about 350 mg/dl or more were selected. Groups each having 3 to 4 mice were used for the experiment, and the mice were grouped to make the average body weight and the average blood glucose level similar. Each compound was administered to a compound administration group by feeding a mixture with feed containing 0.03% of the compound. A separate group in which the mice were fed only with feed was a control group.
The experiment period (drug administration period) was three days. The grouping day was the 0th day. On the 3rd day, body weight was measured and blood was collected from the tail vein to measure the blood glucose level.
The blood glucose lowering efficacy was determined by the following formula.
Blood glucose lowering efficacy=[(Control group blood glucose level−Compound administration group blood glucose level)/Control group blood glucose level]×100

Structure (SMILES) | inhibition in vivo at 0.03 % in feed
COc1cc(O)c2c(c1C(=O)NCc1c(C)ccc3ccccc13)OC1=CC(O)=C(C(C)=O)C(=O)[C@]12C [Example 27, (9aS)-8-Acetyl-1,7-dihydroxy-3-methoxy-9a-methyl-N-[(2-methyl-1-naphthyl)methyl]-9-oxo-9,9a-dihydrodibenzo[b,d]furan-4-carboxamide] | 42%
COc1cc(O)c2c(c1C(=O)NCc1c(C)c(C)cc(C)c1C)OC1=CC(O)=C(C(C)=O)C(=O)[C@]12C [Example 36, (9aS)-8-Acetyl-1,7-dihydroxy-3-methoxy-9a-methyl-9-oxo-N-(2,3,5,6-tetramethylbenzyl)-9,9a-dihydrodibenzo[b,d]furan-4-carboxamide] | 36%
COc1cc(O)c2c(c1C(=O)NCc1c(C)c(C)cc3ccccc13)OC1=CC(O)=C(C(C)=O)C(=O)[C@]12C [Example 54, (9aS)-8-Acetyl-1,7-dihydroxy-3-methoxy-9a-methyl-N-[(2,3-dimethyl-1-naphthyl)methyl]-9-oxo-9,9a-dihydrodibenzo[b,d]furan-4-carboxamide] | 34%
CCc1ccc2ccccc2c1CNC(=O)c1c(OC)cc(O)c2c1OC1=CC(O)=C(C(C)=O)C(=O)[C@]12C [Example 56, (9aS)-8-Acetyl-N-[(2-ethyl-1-naphthyl)methyl]-1,7-dihydroxy-3-methoxy-9a-methyl-9-oxo-9,9a-dihydrodibenzo[b,d]furan-4-carboxamide] | 24%
COc1cc(O)c2c(c1C(=O)NCc1c(C)c(C)c(C)c3ccccc13)OC1=CC(O)=C(C(C)=O)C(=O)[C@]12C [Example 69, (9aS)-8-Acetyl-1,7-dihydroxy-3-methoxy-9a-methyl-N-[(2,3,4-trimethyl-1-naphthyl)methyl]-9-oxo-9,9a-dihydrodibenzo[b,d]furan-4-carboxamide] | 47%
CC(=O)C1=C(O)C=C2Oc3c(C(=O)NCc4c(C)ccc5ccccc45)c(OC(F)F)cc(O)c3[C@]2(C)C1=O [Example 86, (9aS)-8-Acetyl-3-(difluoromethoxy)-1,7-dihydroxy-9a-methyl-N-[(2-methyl-1-naphthyl)methyl]-9-oxo-9,9a-dihydrodibenzo[b,d]furan-4-carboxamide] | 31%
CO/N=C(\C)C1=C(O)C=C2Oc3c(C(=O)NCc4c(C)ccc5ccccc45)c(OC)cc(O)c3[C@]2(C)C1=O [Example 87, (9aS)-1,7-Dihydroxy-3-methoxy-8-[(1E)-N-methoxyethaneimidoyl]-9a-methyl-N-[(2-methyl-1-naphthyl)methyl]-9-oxo-9,9a-dihydrodibenzo[b,d]furan-4-carboxamide] | 45%
CCCc1c(C)cc(C)c(C)c1CNC(=O)c1c(OC)cc(O)c2c1OC1=CC(O)=C(C(C)=O)C(=O)[C@]12C [Example 94, (9aS)-8-Acetyl-1,7-dihydroxy-3-methoxy-9a-methyl-9-oxo-N-(2,3,5-trimethyl-6-propylbenzyl)-9,9a-dihydrodibenzo[b,d]furan-4-carboxamide] | 44%
CC#CCOc1cc(C)c(CNC(=O)c2c(OC)cc(O)c3c2OC2=CC(O)=C(C(C)=O)C(=O)[C@]23C)c(C)c1 [Example 97, (9aS)-8-Acetyl-N-[4-(2-butynyloxy)-2,6-dimethylbenzyl]-1,7-dihydroxy-3-methoxy-9a-methyl-9-oxo-9,9a-dihydrodibenzo[b,d]furan-4-carboxamide] | 53%
CCC#CCOc1cc(C)c(CNC(=O)c2c(OC)cc(O)c3c2OC2=CC(O)=C(C(C)=O)C(=O)[C@]23C)c(C)c1 [Example 101, (9aS)-8-Acetyl-N-[2,6-dimethyl-4-(2-pentynyloxy)benzyl]-1,7-dihydroxy-3-methoxy-9a-methyl-9-oxo-9,9a-dihydrodibenzo[b,d]furan-4-carboxamide] | 47%
